Consider one substance from patent publication US20220370463A1, “STABILIZED C-FMS INTRACELLULAR FRAGMENTS (FICD) PROMOTE OSTEOCLAST DIFFERENTIATION AND ARTHRITIC BONE EROSION” (New York Society for the Relief of the Ruptured and …, priority 2019, published 2022).

The subject of assay [1] is FICDs (c-FMS intracellular fragments). In words: FICD generation in M-CSF-cultured human CD14+ cells, immunoblot of whole lysates. It is filed as cell-based. Particulars: MDL28170 treatment. As to the method: FIGS. 8A-8I show c-FMS expression in synovial macrophages. (A) The levels of M-CSF in synovial fluids from patients with rheumatoid arthritis (RA, n=13) and osteoarthritis (OA, n=8) were measured. (B) Mass spectrometry analysis for proteins from ˜50 kDa bands (red box) identified c-FMS as one of top genes. An image of coomassie blue stained genes showing immunoprecipitated cells lysates with either anti-DDK-tag antibodies or IgG control. (C-G) Human CD14+ cells were cultured with M-CSF (20ng/ml). Immunoblot of c-FMS with different antibodies against C-terminal of c-FMS; (C) C-20, (D) D-8, and (E) #3152. Immunoblot of c-FMS with different antibodies against N-terminal of c-FMS; (F) #61701, (G) H-300. (H-I) Human CD14+ cells were cultured with M-CSF (20 ng/ml) for 8 hours to induce early signals, and then BB94 (10 uM) was added for 2 days. (H) Immunoblot with anti c-FMS and α-tubulin antibodies in whole lysates (n=3). (I) Soluble c-FMS was detected by ELISA (n=3). […] All data are shown as mean±SEM. *; p<0.05 significant by two-tailed, paired t-test (A and I). M: mature form, I: immature form, H: hgh mass, L: low mass.
FIGS. 10A-10F show calpain regulates FICD generation. (A and B) Human CD14+ cells were cultured with M-CSF (20 ng/ml) for 8 hours to induce early signals and then (A) MDL 28170(0, 1, 2, 5 uM) or (B) PD150606 (0, 2, 5 uM) was added for 2 days. […]
For orientation: Immunoblotting shows a protein as a band on a membrane.

The next assay relates to human CD14+ cells. In words: Human osteoclastogenesis assay (TRAP-positive multinuclear cells). Particulars: M-CSF, RANKL and MDL28170 for 4 days. It is filed as cell-based. As to the method:
FIGS. 10A-10F show calpain regulates FICD generation. (A and B) Human CD14+ cells were cultured with M-CSF (20 ng/ml) for 8 hours to induce early signals and then (A) MDL 28170(0, 1, 2, 5 uM) or (B) PD150606 (0, 2, 5 uM) was added for 2 days. Immunoblot with anti c-FMS and α-tubulin antibodies in whole lysates(n=3). (C) Immunoblot of nuclear lysates with c-FMS and Lamin B1 antibodies. Cells were cultured with M-CSF for 12 hours, and then M-CSF was removed. Cells were subsequently treated with or without CaCl2 (10 mM) for an additional 24 hours. (D) Osteoclastogenesis assay. Human CD14+ cells were cultured with M-CSF, RANKL and MDL28170 for 4 days. […] Black scale bar is 100 μm. (E) A table showing the calpain cleavage site in c-FMS predicted by GPS-CCD program. First two calpain cleavage sites in cytoplasmic domains of c-FMS were used for FICD constructs. (F) A schematic diagram of a FICD construct. Representative results from at least three independent experiments.
For human osteoclastogenesis assays, cells were added to 96 well plates in triplicate at a seeding density of 5×10^4 cells per well. Osteoclast precursors were incubated with 20 ng/ml of M-CSF and 40 ng/ml of human soluble RANKL up to 5 days in α-MEM supplemented with 10% FBS and 1% L-glutamine. […] Multinucleated (greater than 3 nuclei), TRAP-positive osteoclasts were counted in triplicate wells. […]

Turning to MDL28170, the L-FICD result in assay [1] is recorded as “decreased”. In addition, the osteoclast differentiation entry in the assay on human CD14+ cells was “decreased”.
